Measured values as given in PubChem BioAssay (NCI).
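Abbreviation: GI50, concentration required for 50% inhibition of growth. TGI: total growth inhibition.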

Legend:
Experiment in all cases: NCI-60 cell line screen, 384-well format
[1] = system: UACC-62 melanoma
[2] = system: K-562 leukemia
[3] = system: A549 NSCLC
[4] = system: UACC-257 melanoma
[5] = system: OVCAR-8 ovarian
[6] = system: SK-MEL-28 melanoma
[7] = system: HOP-92 NSCLC
[8] = system: 786-0 renal
[9] = system: SK-MEL-5 melanoma
[10] = system: HCT-15 colon
[11] = system: RPMI-8226 leukemia
[12] = system: SF-295 CNS
[13] = system: COLO 205 colon
[14] = system: NCI-H226 lung
[15] = system: HT29 colon
[16] = system: DU-145 prostate
[17] = system: NCI-H23 lung
[18] = system: NCI-H460 NSCLC
[19] = system: SN12C renal
[20] = system: RXF 393 renal
[21] = system: BT-549 breast
[22] = system: HOP-62 NSCLC
[23] = system: SNB-19 CNS
[24] = system: MOLT-4 leukemia
[25] = system: M14 melanoma
[26] = system: CCRF-CEM leukemia
[27] = system: MCF7 breast
[28] = system: OVCAR-4 ovarian
[29] = system: IGROV1 ovarian
[30] = system: UO-31 renal

Molecule `CNC(=O)c1cccc2cc(Oc3ccnc4cc(OCC5(N)CC5)c(OC)cc34)ccc12` has a TGI [1] of 6.72 µM, a GI50 [2] of 1.7 µM and a TGI [2] of 3.59 µM. For the same molecule, the GI50 [3] was 4.22 µM, the TGI [3] was 14.6 µM and the GI50 [4] was 4.04 µM. It also gave a TGI [4] of 14.2 µM, a GI50 [5] of 4.05 µM and a TGI [5] of 16.1 µM. It also gave a GI50 [6] of 12.1 µM, a TGI [6] of 24.6 µM and a GI50 [7] of 4.13 µM. The TGI [7] was 15.2 µM, the GI50 [8] was 1.77 µM and the TGI [8] was 3.49 µM. The GI50 [9] was 2.3 µM, the TGI [9] was 8.66 µM and the GI50 [10] was 3.87 µM. The TGI [10] was 13.1 µM, the GI50 [11] was 1.98 µM and the TGI [11] was 5.13 µM. The GI50 [12] was 6.14 µM, the TGI [12] was 18.7 µM and the GI50 [13] was 3.22 µM. It also gave a TGI [13] of 10.2 µM, a GI50 [14] of 1.03 µM and a TGI [14] of 4.73 µM. It also gave a GI50 [15] of 5.88 µM, a TGI [15] of 17.9 µM and a GI50 [16] of 5.43 µM. The TGI [16] was 17.6 µM, the GI50 [17] was 4.73 µM and the TGI [17] was 16.4 µM. For the same molecule, the GI50 [18] was 2.74 µM, the TGI [18] was 7.12 µM and the GI50 [19] was 2.55 µM. The TGI [19] was 8.63 µM, the GI50 [20] was 1.64 µM and the TGI [20] was 4.39 µM. For the same molecule, the GI50 [21] was 1.78 µM, the TGI [21] was 8.85 µM and the GI50 [22] was 2.91 µM. For the same molecule, the TGI [22] was 15.5 µM, the GI50 [23] was 3.89 µM and the TGI [23] was 15.7 µM. For the same molecule, the GI50 [24] was 1.2 µM, the TGI [24] was 2.45 µM and the GI50 [25] was 3.97 µM. The TGI [25] was 14.3 µM, the GI50 [26] was 1.67 µM and the TGI [26] was 3.23 µM. For the same molecule, the GI50 [27] was 2.37 µM, the TGI [27] was 10.8 µM and the GI50 [28] was 1.48 µM. For the same molecule, the TGI [28] was 4.04 µM, the GI50 [29] was 5.36 µM and the TGI [29] was 17.5 µM. For the same molecule, the GI50 [30] was 3.17 µM and the TGI [30] was 10.9 µM.
